Reference: ChEMBL document CHEMBL5465560, “Selectivity Literature for EUbOPEN Chemogenomic Library” (2024)

Tests used:
[1] = target: Citron Rho-interacting kinase (Homo sapiens) (UniProt O14578); assay: Selectivity interaction (KinomeScan (DiscoverX)) EUB0000229b CIT; conditions: at 10 µM
[2] = target: Ribosomal protein S6 kinase alpha-3 (Homo sapiens, UniProt P51812); assay: Selectivity interaction (KinomeScan (DiscoverX)) EUB0000045b RPS6KA3
[3] = target: Ribosomal protein S6 kinase alpha-4 (Homo sapiens) (UniProt O75676); assay: Selectivity interaction (KinomeScan (DiscoverX)) EUB0000695a RPS6KA4; conditions: at 100 nM
[4] = target: L-type calcium channel Cav1.2 (CACNA1C) (Homo sapiens, UniProt Q13936); assay: Selectivity interaction (Eurofins CEREP Diversity Profile (receptors and ion channels)) EUB0000279b CACNA1C; conditions: at 10 µM, read-out: % of control
[5] = target: T1, Serine/threonine-protein kinase TAO2 (Homo sapiens) (UniProt Q9UL54); assay: Selectivity interaction (KinomeScan (DiscoverX)) EUB0001049a TAOK2; conditions: at 1 µM
T1 sequence (whole entry): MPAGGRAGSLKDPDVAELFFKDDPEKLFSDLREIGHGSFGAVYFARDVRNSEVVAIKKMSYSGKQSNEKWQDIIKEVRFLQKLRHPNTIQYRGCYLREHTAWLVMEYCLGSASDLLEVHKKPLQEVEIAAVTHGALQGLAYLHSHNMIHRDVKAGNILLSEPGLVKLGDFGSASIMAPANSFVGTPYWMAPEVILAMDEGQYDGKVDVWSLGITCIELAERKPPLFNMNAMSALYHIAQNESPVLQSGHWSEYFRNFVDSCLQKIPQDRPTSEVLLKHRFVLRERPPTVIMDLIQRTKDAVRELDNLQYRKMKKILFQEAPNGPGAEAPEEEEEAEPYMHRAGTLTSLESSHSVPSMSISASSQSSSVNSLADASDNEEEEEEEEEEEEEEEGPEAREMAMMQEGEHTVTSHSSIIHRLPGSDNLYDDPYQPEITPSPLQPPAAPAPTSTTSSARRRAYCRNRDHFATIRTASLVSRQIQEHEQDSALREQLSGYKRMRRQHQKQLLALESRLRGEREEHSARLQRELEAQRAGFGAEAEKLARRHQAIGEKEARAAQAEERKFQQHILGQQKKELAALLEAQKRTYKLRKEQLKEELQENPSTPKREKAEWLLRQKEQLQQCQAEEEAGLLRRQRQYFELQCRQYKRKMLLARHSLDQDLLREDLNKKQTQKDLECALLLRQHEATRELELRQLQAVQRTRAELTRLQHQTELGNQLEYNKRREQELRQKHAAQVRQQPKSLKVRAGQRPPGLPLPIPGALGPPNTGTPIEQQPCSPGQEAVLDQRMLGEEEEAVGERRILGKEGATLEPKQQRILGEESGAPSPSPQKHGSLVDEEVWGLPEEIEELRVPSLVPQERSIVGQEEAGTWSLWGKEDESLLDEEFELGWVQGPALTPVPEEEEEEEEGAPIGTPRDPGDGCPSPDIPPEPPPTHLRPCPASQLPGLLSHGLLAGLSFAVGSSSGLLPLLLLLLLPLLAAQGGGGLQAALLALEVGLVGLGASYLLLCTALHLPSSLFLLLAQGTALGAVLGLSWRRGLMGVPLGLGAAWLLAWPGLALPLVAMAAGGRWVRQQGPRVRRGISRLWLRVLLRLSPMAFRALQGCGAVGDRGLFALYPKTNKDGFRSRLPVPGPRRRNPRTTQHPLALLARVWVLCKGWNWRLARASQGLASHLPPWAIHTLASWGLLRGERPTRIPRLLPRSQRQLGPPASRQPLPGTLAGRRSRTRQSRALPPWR

[6] = target: T2, Non-receptor tyrosine-protein kinase TNK1 (Homo sapiens) (UniProt Q13470); assay: Selectivity interaction (Kinase panel (Carna Biosciences)) EUB0001542aTs TNK1; conditions: at 1 µM
T2 sequence (whole entry): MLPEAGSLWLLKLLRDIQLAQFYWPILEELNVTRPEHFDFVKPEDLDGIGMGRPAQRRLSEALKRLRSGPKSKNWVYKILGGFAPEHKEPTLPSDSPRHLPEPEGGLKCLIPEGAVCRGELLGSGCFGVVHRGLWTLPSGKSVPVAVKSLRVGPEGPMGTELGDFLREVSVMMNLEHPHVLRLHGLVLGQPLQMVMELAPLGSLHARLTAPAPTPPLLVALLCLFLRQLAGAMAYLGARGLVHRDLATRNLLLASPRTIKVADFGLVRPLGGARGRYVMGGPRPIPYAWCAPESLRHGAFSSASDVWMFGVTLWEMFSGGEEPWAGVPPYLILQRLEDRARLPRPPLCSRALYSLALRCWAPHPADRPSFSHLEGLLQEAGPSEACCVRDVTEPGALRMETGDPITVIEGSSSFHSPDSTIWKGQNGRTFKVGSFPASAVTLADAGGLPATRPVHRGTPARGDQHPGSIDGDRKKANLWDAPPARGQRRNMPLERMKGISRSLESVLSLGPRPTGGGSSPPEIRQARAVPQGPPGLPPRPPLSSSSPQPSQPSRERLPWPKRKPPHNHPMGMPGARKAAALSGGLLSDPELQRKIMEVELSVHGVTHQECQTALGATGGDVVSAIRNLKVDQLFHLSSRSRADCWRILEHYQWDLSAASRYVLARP

[7] = target: Protein kinase C eta type (Homo sapiens) (UniProt P24723); assay: Selectivity interaction (KinomeScan (DiscoverX)) EUB0001619a PRKCH; conditions: at 1 µM
[8] = target: Cyclin-dependent kinase 18 (Homo sapiens) (UniProt Q07002); assay: Selectivity interaction (ActivX KiNativ screen (kinase selectivity in THP-1 cell lysates)) EUB0000639a CDK18; assay type: subcellular; conditions: lysate, at 0.04 µM
Chain of Cyclin-dependent kinase 18 (Homo sapiens) (Q07002 whole entry): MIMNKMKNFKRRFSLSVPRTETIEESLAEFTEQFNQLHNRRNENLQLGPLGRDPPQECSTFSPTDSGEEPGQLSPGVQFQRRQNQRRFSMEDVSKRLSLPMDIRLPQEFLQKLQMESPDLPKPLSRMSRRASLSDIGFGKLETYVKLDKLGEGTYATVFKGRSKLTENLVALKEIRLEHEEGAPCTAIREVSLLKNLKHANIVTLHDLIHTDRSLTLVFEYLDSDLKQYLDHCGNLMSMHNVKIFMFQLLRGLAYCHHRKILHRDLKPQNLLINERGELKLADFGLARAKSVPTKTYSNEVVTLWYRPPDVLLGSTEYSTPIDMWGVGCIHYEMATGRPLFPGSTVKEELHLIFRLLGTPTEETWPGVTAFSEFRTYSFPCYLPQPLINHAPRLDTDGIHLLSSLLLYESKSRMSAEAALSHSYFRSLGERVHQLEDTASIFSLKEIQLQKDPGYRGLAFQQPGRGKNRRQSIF

Chain of Ribosomal protein S6 kinase alpha-3 (P51812 whole entry): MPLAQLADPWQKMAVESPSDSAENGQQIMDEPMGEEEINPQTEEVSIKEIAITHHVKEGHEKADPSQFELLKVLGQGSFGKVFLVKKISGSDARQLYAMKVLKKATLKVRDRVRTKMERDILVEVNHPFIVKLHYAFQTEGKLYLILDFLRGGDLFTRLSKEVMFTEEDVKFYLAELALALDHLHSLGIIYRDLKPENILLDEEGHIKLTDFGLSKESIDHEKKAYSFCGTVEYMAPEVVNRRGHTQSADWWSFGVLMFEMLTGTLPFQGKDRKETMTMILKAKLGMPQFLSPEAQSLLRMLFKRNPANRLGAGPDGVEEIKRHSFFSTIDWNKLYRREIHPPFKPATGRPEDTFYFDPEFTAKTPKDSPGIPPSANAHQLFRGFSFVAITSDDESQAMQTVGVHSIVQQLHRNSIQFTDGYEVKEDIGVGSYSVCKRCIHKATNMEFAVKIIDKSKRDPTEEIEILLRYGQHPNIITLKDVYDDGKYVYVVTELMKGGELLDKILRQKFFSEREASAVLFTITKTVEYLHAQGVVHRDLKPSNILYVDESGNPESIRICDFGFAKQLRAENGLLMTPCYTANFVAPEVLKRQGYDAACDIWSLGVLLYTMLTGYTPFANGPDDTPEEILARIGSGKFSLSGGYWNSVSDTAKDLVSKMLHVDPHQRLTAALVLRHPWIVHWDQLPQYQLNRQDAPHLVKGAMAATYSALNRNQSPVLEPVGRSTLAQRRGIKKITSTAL
Chain of Ribosomal protein S6 kinase alpha-4 (Homo sapiens) (O75676 whole entry, looked up): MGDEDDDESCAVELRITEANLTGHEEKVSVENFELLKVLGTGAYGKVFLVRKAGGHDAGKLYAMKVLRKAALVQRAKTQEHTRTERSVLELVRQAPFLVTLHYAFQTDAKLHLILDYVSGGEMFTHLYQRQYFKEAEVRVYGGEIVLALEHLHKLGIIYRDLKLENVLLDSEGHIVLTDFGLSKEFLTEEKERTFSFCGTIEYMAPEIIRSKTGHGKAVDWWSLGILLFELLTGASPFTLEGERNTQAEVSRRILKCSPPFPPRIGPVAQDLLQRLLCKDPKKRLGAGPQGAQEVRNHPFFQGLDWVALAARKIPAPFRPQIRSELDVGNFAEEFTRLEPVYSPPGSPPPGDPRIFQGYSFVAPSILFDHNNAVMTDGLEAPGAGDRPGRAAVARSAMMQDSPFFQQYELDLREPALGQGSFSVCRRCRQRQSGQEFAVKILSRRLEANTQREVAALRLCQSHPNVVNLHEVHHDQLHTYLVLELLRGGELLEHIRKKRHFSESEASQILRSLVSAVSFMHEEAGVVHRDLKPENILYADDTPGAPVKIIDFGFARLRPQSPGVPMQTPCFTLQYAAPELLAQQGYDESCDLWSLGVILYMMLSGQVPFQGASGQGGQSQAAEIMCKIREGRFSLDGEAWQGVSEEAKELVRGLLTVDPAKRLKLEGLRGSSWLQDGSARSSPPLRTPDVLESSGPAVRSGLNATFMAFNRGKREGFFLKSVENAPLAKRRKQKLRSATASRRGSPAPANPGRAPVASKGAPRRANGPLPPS
Chain of Protein kinase C eta type (Homo sapiens) (P24723 whole entry): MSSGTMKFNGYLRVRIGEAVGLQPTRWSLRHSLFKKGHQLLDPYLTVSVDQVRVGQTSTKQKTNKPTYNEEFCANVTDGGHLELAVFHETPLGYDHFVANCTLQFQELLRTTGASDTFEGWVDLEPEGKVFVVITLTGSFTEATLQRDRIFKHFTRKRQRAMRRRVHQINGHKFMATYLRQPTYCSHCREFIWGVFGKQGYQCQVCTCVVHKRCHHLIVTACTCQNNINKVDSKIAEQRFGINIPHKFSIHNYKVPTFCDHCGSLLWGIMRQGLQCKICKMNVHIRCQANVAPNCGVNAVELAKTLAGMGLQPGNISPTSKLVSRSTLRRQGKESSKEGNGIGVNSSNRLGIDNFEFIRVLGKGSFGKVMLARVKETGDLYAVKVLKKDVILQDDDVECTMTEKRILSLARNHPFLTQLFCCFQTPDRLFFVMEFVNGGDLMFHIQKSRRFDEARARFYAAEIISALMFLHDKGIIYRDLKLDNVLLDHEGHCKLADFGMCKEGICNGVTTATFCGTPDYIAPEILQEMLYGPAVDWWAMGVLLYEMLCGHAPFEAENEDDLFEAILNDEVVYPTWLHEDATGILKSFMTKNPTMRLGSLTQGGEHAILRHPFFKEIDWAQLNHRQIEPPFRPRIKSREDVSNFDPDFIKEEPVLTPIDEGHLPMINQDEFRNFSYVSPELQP
Chain of Citron Rho-interacting kinase (Homo sapiens) (O14578 whole entry): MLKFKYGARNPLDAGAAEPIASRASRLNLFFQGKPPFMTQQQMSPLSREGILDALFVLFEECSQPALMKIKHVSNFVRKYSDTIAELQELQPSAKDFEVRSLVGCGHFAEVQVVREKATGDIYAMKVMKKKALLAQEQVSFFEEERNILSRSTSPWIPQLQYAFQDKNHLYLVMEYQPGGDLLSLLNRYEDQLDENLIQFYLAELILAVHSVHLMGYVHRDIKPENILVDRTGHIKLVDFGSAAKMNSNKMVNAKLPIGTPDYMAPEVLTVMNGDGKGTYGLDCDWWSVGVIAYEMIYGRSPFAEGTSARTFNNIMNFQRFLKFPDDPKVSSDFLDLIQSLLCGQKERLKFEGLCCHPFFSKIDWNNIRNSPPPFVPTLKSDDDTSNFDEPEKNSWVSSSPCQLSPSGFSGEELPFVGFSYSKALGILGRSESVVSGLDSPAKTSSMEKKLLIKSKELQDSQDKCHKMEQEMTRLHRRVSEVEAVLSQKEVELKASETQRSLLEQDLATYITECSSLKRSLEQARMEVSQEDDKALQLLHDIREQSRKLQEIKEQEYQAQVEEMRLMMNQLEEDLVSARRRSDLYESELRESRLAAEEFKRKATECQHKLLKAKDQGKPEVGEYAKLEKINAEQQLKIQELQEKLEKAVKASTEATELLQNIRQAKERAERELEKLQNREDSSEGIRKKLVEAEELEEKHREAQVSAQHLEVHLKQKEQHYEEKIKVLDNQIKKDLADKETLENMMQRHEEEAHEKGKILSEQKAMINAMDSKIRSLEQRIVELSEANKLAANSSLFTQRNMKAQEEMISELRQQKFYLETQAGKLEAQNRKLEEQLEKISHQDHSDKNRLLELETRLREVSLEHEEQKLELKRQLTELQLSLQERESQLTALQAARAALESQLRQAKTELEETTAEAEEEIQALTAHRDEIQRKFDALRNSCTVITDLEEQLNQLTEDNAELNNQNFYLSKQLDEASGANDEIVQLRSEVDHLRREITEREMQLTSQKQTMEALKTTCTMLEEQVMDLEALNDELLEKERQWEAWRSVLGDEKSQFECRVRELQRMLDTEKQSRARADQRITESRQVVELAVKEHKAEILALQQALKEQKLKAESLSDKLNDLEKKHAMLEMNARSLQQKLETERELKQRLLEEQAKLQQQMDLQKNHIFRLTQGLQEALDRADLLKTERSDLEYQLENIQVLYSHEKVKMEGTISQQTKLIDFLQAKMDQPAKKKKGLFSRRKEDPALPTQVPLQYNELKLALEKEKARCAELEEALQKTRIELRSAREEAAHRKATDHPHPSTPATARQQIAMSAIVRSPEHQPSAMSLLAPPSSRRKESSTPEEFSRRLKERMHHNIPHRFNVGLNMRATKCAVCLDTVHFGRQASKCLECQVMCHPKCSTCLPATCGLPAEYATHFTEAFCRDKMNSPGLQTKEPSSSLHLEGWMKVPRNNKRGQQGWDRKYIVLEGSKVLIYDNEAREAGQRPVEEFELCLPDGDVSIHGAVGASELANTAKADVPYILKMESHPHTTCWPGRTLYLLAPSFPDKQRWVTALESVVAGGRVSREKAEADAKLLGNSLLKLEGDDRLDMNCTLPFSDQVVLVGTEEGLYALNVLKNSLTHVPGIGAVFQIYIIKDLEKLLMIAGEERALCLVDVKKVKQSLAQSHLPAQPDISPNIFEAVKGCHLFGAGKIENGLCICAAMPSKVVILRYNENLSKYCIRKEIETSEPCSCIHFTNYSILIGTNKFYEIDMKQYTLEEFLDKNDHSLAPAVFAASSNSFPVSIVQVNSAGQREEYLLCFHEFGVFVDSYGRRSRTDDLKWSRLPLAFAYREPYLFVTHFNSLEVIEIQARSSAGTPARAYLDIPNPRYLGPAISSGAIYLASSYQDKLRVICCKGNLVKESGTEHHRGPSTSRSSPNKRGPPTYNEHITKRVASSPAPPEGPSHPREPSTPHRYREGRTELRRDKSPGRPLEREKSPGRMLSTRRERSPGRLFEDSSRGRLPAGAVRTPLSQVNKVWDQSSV

Work on `COc1cc(N(C)c2ccnc3ccc(C(F)(F)F)cc23)cc(OC)c1OC` yielded a % binding [1] of 93%.

`C=CC(=O)Nc1cc(-n2c(=O)ccc3cnc4ccc(-c5ccc(NS(C)(=O)=O)cc5)cc4c32)ccc1C` showed a % of control ([2]; at 1 µM) of 81% and a % of control ([2]; at 10 µM) of 100%.

Compound `Cc1cc(F)c(C(=O)Nc2cccc(-c3nncn3C(C)C)n2)cc1-n1cnc(C2CC2)c1` has a % of control [3] of 69%.

Work on `CC(=O)c1cc(-c2ccccc2OCC2CC2)c2ncccn12` yielded an activity [4] of 21%.

For `COc1cc(Nc2nc(C)cc(-c3cnn4nc(OC)ccc34)n2)cc(C(F)(F)F)c1`, the % of control [5] was 77%.

For `Cn1cc(Nc2nccc(N3CC4CCC(C3)N4C(=O)[C@@H]3CC3(F)F)n2)cn1`, the % of inhibition [6] was 64%.

`N#Cc1cccc(-c2c[nH]c3ncnc(N4CCOCC4)c23)c1` showed a % of control [7] of 41%.

`CC[C@@H]1[C@H](F)C(=O)N[C@@H]1COc1nccc2cc(C(N)=O)c(OC)cc12` [ZIMLOVISERTIB] showed a % of inhibition [8] of 1.7%.
